pKi: −log10 of the molar value.
Columns and labels:
[1] = target: T1, Somatostatin receptor type 2 (Homo sapiens, UniProt P30874); test: Binding affinity to human somatostatin 2 receptor
[2] = target: Somatostatin receptor type 3 (Homo sapiens, UniProt P32745); test: Binding affinity to hsst3 was determined
[3] = target: T1, Somatostatin receptor type 2; test: Binding affinity to Somatostatin receptor type 2 was determined
[4] = target: Somatostatin receptor type 5 (Homo sapiens, UniProt P35346); test: Binding affinity to hsst5 was determined
[5] = Ratio of binding affinity of h5 to that of binding affinity of h2

Somatostatin receptor type 3, sequence (P32745 whole entry): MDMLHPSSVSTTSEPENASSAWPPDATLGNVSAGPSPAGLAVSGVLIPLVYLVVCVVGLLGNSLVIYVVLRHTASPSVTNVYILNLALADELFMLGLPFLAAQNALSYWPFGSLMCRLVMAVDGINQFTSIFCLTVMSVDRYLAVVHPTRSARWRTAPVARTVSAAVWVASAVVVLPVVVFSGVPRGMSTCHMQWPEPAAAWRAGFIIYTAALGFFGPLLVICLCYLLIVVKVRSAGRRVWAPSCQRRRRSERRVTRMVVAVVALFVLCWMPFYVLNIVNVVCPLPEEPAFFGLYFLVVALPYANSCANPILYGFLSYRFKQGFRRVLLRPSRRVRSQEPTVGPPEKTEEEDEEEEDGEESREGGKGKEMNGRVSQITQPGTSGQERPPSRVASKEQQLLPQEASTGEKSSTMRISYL
Somatostatin receptor type 5, sequence (P35346 whole entry): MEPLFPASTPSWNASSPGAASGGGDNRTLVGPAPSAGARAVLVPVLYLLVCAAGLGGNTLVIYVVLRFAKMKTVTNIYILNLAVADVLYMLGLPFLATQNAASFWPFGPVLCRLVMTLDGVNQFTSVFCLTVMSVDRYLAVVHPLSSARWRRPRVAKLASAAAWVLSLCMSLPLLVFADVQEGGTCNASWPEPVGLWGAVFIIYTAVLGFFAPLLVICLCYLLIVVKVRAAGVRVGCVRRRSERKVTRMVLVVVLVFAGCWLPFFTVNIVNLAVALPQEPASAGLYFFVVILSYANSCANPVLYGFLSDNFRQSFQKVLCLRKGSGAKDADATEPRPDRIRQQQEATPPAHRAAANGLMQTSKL
T1 sequence (P30874 whole entry): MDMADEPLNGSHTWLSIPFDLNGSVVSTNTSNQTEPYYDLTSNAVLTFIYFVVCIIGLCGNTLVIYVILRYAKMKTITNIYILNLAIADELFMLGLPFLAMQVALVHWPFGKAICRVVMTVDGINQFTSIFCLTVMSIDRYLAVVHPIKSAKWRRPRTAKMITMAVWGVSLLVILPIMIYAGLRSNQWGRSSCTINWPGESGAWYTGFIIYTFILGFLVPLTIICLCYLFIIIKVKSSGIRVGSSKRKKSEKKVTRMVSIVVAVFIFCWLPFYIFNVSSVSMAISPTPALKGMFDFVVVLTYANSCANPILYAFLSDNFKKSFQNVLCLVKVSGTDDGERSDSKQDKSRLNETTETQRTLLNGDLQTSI

SMILES	pKi [1]	other results
C[C@@H](c1c[nH]c2ccccc12)C(NC(=O)C1CCCN(C(=O)c2ccc3c(c2)OCO3)C1)C(=O)N[C@@H](CCCCN)C(=O)OC(C)(C)C (stereo not given in full)	7.44	–
CC(C)C(=O)N1CCC(C(=O)NC(C(=O)N[C@@H](CCCCN)C(=O)OC(C)(C)C)[C@@H](C)c2c[nH]c3ccccc23)CC1 (stereo not given in full)	–	pKi [2]: 5.28; pKi [3]: 7.82; pKi [4]: 5.54; Ratio [5]: 190
C[C@@H](c1c[nH]c2ccccc12)C(NC(=O)C1CCCN(Cc2ccc3c(c2Cl)OCO3)C1)C(=O)N[C@@H](CCCCN)C(=O)OC(C)(C)C (stereo not given in full)	7.92	–
C[C@@H](c1c[nH]c2ccccc12)C(NC(=O)C1CCCNC1)C(=O)N[C@@H](CCCCN)C(=O)OC(C)(C)C (stereo not given in full)	6.75	–
CC(C)NC(=O)N1CCCC(C(=O)NC(C(=O)N[C@@H](CCCCN)C(=O)OC(C)(C)C)[C@@H](C)c2c[nH]c3ccccc23)C1 (stereo not given in full)	7.02	–
CC(C)CC(=O)N1CCCC(C(=O)NC(C(=O)N[C@@H](CCCCN)C(=O)OC(C)(C)C)[C@@H](C)c2c[nH]c3ccccc23)C1 (stereo not given in full)	7.64	–
C[C@@H](c1c[nH]c2ccccc12)C(NC(=O)C1CCN(Cc2ccccc2)CC1)C(=O)N[C@@H](CCCCN)C(=O)OC(C)(C)C (stereo not given in full)	–	pKi [3]: 8.60; pKi [4]: 6.48; Ratio [5]: 133
C[C@@H](c1c[nH]c2ccccc12)C(NC(=O)C1CCCN(S(=O)(=O)c2cccs2)C1)C(=O)N[C@@H](CCCCN)C(=O)OC(C)(C)C (stereo not given in full)	7.85	–
C[C@@H](c1c[nH]c2ccccc12)C(NC(=O)C1CCCN(S(=O)(=O)c2ccc(F)cc2)C1)C(=O)N[C@@H](CCCCN)C(=O)OC(C)(C)C (stereo not given in full)	7.96	–
C[C@@H](c1c[nH]c2ccccc12)C(NC(=O)C1CCCN(Cc2ccc3ccccc3c2)C1)C(=O)N[C@@H](CCCCN)C(=O)OC(C)(C)C (stereo not given in full)	7.77	–
CC(=O)Nc1cccc(C(=O)N2CCCC(C(=O)NC(C(=O)N[C@@H](CCCCN)C(=O)OC(C)(C)C)[C@@H](C)c3c[nH]c4ccccc34)C2)c1 (stereo not given in full)	7.33	–
CC(C)S(=O)(=O)N1CCC(C(=O)NC(C(=O)N[C@@H](CCCCN)C(=O)OC(C)(C)C)[C@@H](C)c2c[nH]c3ccccc23)CC1 (stereo not given in full)	–	pKi [2]: 5.43; pKi [3]: 6.92; pKi [4]: < 5.00; Ratio [5]: > 83
CC(C)S(=O)(=O)N1CCCC(C(=O)NC(C(=O)N[C@@H](CCCCN)C(=O)OC(C)(C)C)[C@@H](C)c2c[nH]c3ccccc23)C1 (stereo not given in full)	7.46	–
C[C@@H](c1c[nH]c2ccccc12)C(NC(=O)C1CCCN(C(c2ccccc2)c2ccccc2)C1)C(=O)N[C@@H](CCCCN)C(=O)OC(C)(C)C (stereo not given in full)	7.51	–
C[C@@H](c1c[nH]c2ccccc12)C(NC(=O)C1CCCN(C(=O)c2ccc3[nH]cnc3c2)C1)C(=O)N[C@@H](CCCCN)C(=O)OC(C)(C)C (stereo not given in full)	7.07	–
C[C@@H](c1c[nH]c2ccccc12)C(NC(=O)C1CCCN(C(=O)Nc2ccccc2)C1)C(=O)N[C@@H](CCCCN)C(=O)OC(C)(C)C (stereo not given in full)	7.96	–
C[C@@H](c1c[nH]c2ccccc12)C(NC(=O)C1CCCN(Cc2ccccc2-c2ccccc2)C1)C(=O)N[C@@H](CCCCN)C(=O)OC(C)(C)C (stereo not given in full)	7.68	–
COc1ccc(S(=O)(=O)N2CCCC(C(=O)NC(C(=O)N[C@@H](CCCCN)C(=O)OC(C)(C)C)[C@@H](C)c3c[nH]c4ccccc34)C2)cc1OC (stereo not given in full)	7.64	–
C[C@@H](c1c[nH]c2ccccc12)C(NC(=O)C1CCCN(C(=O)c2cccnc2)C1)C(=O)N[C@@H](CCCCN)C(=O)OC(C)(C)C (stereo not given in full)	7.07	–
C[C@@H](c1c[nH]c2ccccc12)C(NC(=O)C1CCN(C(=O)c2ccccc2)CC1)C(=O)N[C@@H](CCCCN)C(=O)OC(C)(C)C (stereo not given in full)	–	pKi [2]: 5.58; pKi [3]: 9.30; pKi [4]: 6.38; Ratio [5]: 832

The remaining compounds from weak to strong by pKi [1], led by results:

pKi [1]	SMILES	other results
7.96	COC(=O)c1cccc(CN2CCCC(C(=O)NC(C(=O)N[C@@H](CCCCN)C(=O)OC(C)(C)C)[C@@H](C)c3c[nH]c4ccccc34)C2)c1 (stereo not given in full)	–
8.00	C[C@@H](c1c[nH]c2ccccc12)C(NC(=O)C1CCCN(C(=O)c2ccccc2)C1)C(=O)N[C@@H](CCCCN)C(=O)OC(C)(C)C (stereo not given in full)	–
8.00	C[C@@H](c1c[nH]c2ccccc12)C(NC(=O)C1CCCN(C(=O)Cc2ccc3c(c2)OCO3)C1)C(=O)N[C@@H](CCCCN)C(=O)OC(C)(C)C (stereo not given in full)	–
8.00	COc1cccc(CN2CCCC(C(=O)NC(C(=O)N[C@@H](CCCCN)C(=O)OC(C)(C)C)[C@@H](C)c3c[nH]c4ccccc34)C2)c1 (stereo not given in full)	–
8.05	COc1cccc(NC(=O)N2CCCC(C(=O)NC(C(=O)N[C@@H](CCCCN)C(=O)OC(C)(C)C)[C@@H](C)c3c[nH]c4ccccc34)C2)c1 (stereo not given in full)	–
8.07	COC(=O)[C@H](Cc1ccccc1)NC(=O)N1CCCC(C(=O)NC(C(=O)N[C@@H](CCCCN)C(=O)OC(C)(C)C)[C@@H](C)c2c[nH]c3ccccc23)C1 (stereo not given in full)	–
8.14	C[C@@H](c1c[nH]c2ccccc12)C(NC(=O)C1CCCN(C(=O)NC2CCCCC2)C1)C(=O)N[C@@H](CCCCN)C(=O)OC(C)(C)C (stereo not given in full)	–
8.24	C[C@@H](c1c[nH]c2ccccc12)C(NC(=O)C1CCCN(Cc2cccc(F)c2F)C1)C(=O)N[C@@H](CCCCN)C(=O)OC(C)(C)C (stereo not given in full)	–
8.30	C[C@@H](c1c[nH]c2ccccc12)C(NC(=O)C1CCCN(Cc2cccc(F)c2)C1)C(=O)N[C@@H](CCCCN)C(=O)OC(C)(C)C (stereo not given in full)	–
8.30	C[C@@H](c1c[nH]c2ccccc12)C(NC(=O)C1CCCN(C(=O)C(c2ccccc2)c2ccccc2)C1)C(=O)N[C@@H](CCCCN)C(=O)OC(C)(C)C (stereo not given in full)	–
8.34	C[C@@H](c1c[nH]c2ccccc12)C(NC(=O)C1CCCN(Cc2ccccc2)C1)C(=O)N[C@@H](CCCCN)C(=O)OC(C)(C)C (stereo not given in full)	–
8.54	C[C@@H](c1c[nH]c2ccccc12)C(NC(=O)C1CCCN(Cc2ccc(F)c(F)c2)C1)C(=O)N[C@@H](CCCCN)C(=O)OC(C)(C)C (stereo not given in full)	–
8.55	C[C@@H](c1c[nH]c2ccccc12)C(NC(=O)C1CCCN(C(=O)C(O)(c2ccccc2)c2ccccc2)C1)C(=O)N[C@@H](CCCCN)C(=O)OC(C)(C)C (stereo not given in full)	–
8.64	C[C@@H](c1c[nH]c2ccccc12)C(NC(=O)C1CCCN(C(=O)Cc2cc(F)cc(F)c2)C1)C(=O)N[C@@H](CCCCN)C(=O)OC(C)(C)C (stereo not given in full)	–

— ChEMBL document CHEMBL1134175, “Nipecotic and iso-nipecotic amides as potent and selective somatostatin subtype-2 receptor agonists” (Bioorg Med Chem Lett, 2001)
